# In ChEMBL document CHEMBL6121014, “Novel α-mangostin derivatives as promising antiviral agents: Isolation, synthesis, and evaluation against chikungunya virus” (Eur J Med Chem, 2025):
# Calls of active or inactive are those of the source. The calls are words filed in the database; no cut-off is given here.
# Key:
# [1] = (§1) Cytotoxicity against green monkey Vero cells assessed as reduction in cell viability at 24 to 48 hrs by MTT assay; assay type: toxicity, cell-based; design: Activity: concentration or dose not given beside the values; settings: chlorocebus sabaeus, Vero cells; time 24-48 hrs
# Vero = test: as §1; assay type: toxicity, cell-based; design: Activity: concentration or dose not given beside the values; settings: chlorocebus sabaeus, vero; time 24-48 hrs
# Chikungunya virus [2] = test: Antiviral activity against CHIKV infected in green monkey Vero cells assessed as inhibition of viral entry by entry assay; assay type: functional, organism-based
# [3] = Selectivity ratio of IC50 for antiviral activity against CHIKV infected in green monkey Vero cells assessed as reduction in viral titer pretreated the cells with viral infection for 1 hr followed by compound addition and measured after 24 hrs by Foci forming unit assay to CC50 for cytotoxicity against green monkey Vero cells; assay type: toxicity, cell-based
# Chikungunya virus [4] = test: Antiviral activity against CHIKV infected in green monkey Vero cells assessed as inhibition of infectious virus preincubated the cells for 45 mins followed by compound addition and measured after 1 to 6 hrs post infection by time of addition assay; assay type: functional, organism-based; settings: time 1-6 hrs
# Chikungunya virus [5] = test: Antiviral activity against CHIKV infected in green monkey Vero cells assessed as inhibition of infectious virus preincubated the cells for 45 mins followed by compound addition and measured after 5 to 6 hrs post infection by time of addition assay; assay type: functional; design: scale not given: the % may be the effect or the level left; settings: time 5-6 hrs
# Chikungunya virus [6] = test: Antiviral activity against CHIKV infected in green monkey Vero cells assessed as reduction in viral titer pretreated the cells with viral infection for 1 hr followed by compound addition and measured after 24 hrs by Foci forming unit assay; assay type: functional, organism-based
# Chikungunya virus [7] = test: Antiviral activity against CHIKV infected in green monkey Vero cells assessed as inhibition of viral post entry by entry bypass assay; assay type: functional, organism-based
# Chikungunya virus [8] = test: Antiviral activity against CHIKV infected in green monkey Vero cells assessed as reduction in viral titer at 3.125 uM pretreated the cells with viral infection for 1 hr followed by compound addition and measured after 24 hrs by Foci forming unit assay (reference value: 8.55 log10FFU/ml); assay type: functional
# Chikungunya virus [9] = test: Antiviral activity against CHIKV infected in green monkey Vero cells assessed as reduction in viral titer at 1.56 uM pretreated the cells with viral infection for 1 hr followed by compound addition and measured after 24 hrs by Foci forming unit assay (reference value: 8.55 log10FFU/ml); assay type: functional
# Chikungunya virus [10] = test: Antiviral activity against CHIKV infected in green monkey Vero cells assessed as reduction in viral titer at 12.5 to 50 uM pretreated the cells with viral infection for 1 hr followed by compound addition and measured after 24 hrs by Foci forming unit assay (reference value: 8.55 log10FFU/ml); assay type: functional; settings: dose 12.5-50 µM
# Chikungunya virus [11] = test: Antiviral activity against CHIKV infected in green monkey Vero cells assessed as reduction in viral titer at 25 uM pretreated with compound for 24 hrs followed by viral infection by foci forming unit assay (reference value: 8.48 log10FFU/ml); assay type: functional
# Chikungunya virus [12] = test: Antiviral activity against CHIKV infected in green monkey Vero cells assessed as reduction in viral titer at 50 uM pretreated with compound for 24 hrs followed by viral infection by foci forming unit assay (reference value: 8.48 log10FFU/ml); assay type: functional
# Chikungunya virus [13] = test: Antiviral activity against CHIKV infected in green monkey Vero cells assessed as reduction in viral titer pretreated with compound for 24 hrs followed by viral infection by Foci forming unit assay; assay type: functional, organism-based
smiles,measurement,setting,value
COc1c(OCc2cn(-c3cc(Cl)ccc3Cl)nn2)cc2oc3cc4c(c(O)c3c(=O)c2c1CC=C(C)C)C=CC(C)(C)O4,CC50,[1],148 µM
same,Activity,Vero,> 90%
same,Activity,Chikungunya virus [2],Active; Largest Inhibitory Effect Was Observed
same,selectivity ratio at 24 h,[3],76
same,Activity,Chikungunya virus [4],Active
same,Activity,Chikungunya virus [5],>90%
same,IC50,Chikungunya virus [6],1950 nM
COc1c(OCC(=O)N2CCN(S(=O)(=O)c3ccc(Br)cc3)CC2)cc2oc3cc4c(c(O)c3c(=O)c2c1CC=C(C)C)C=CC(C)(C)O4,Activity,Vero,> 90%
COc1c(OCC#Cc2cccc(C(F)(F)F)c2)cc2oc3cc4c(c(O)c3c(=O)c2c1CC=C(C)C)C=CC(C)(C)O4,Activity,Vero,> 90%
COc1c(OCC#Cc2ccc(O)cc2)cc2oc3cc4c(c(O)c3c(=O)c2c1CC=C(C)C)C=CC(C)(C)O4,Activity,Vero,> 90%
same,Activity,Chikungunya virus [4],Active
COc1c(OCc2cn(-c3ccc(C)cc3C)nn2)cc2oc3cc4c(c(O)c3c(=O)c2c1CC=C(C)C)C=CC(C)(C)O4,Activity,Vero,> 90%
COc1c(OCC#Cc2ccc(C(C)=O)cc2)cc2oc3cc4c(c(O)c3c(=O)c2c1CC=C(C)C)C=CC(C)(C)O4,CC50,[1],194 µM
same,Activity,Vero,> 90%
same,Activity,Chikungunya virus [2],Active
same,selectivity ratio at 24 h,[3],637
same,Activity,Chikungunya virus [7],Active; Highest Inhibitory Effect Observed
same,IC50,Chikungunya virus [6],304 nM
C#CCOc1cc2oc3cc4c(c(O)c3c(=O)c2c(CC=C(C)C)c1OC)C=CC(C)(C)O4,Activity,Vero,> 90%
COc1c(OCC#Cc2ccccc2)cc2oc3cc4c(c(O)c3c(=O)c2c1CC=C(C)C)C=CC(C)(C)O4,Activity,Vero,> 90%
COc1c(O)cc2oc3cc4c(c(O)c3c(=O)c2c1CC=C(C)C)C=CC(C)(C)O4 [MANGOSTANIN],CC50,[1],6.68 µM
same,Activity,Vero,> 90%
same,Activity,Chikungunya virus [8],6.42 log10FFU/ml
same,selectivity ratio at 24 h,[3],5.55
same,Activity,Chikungunya virus [9],7.47 log10FFU/ml
same,IC50,Chikungunya virus [6],1020 nM
COc1c(OCC#Cc2ccc(Cl)cc2)cc2oc3cc4c(c(O)c3c(=O)c2c1CC=C(C)C)C=CC(C)(C)O4,Activity,Vero,> 90%
O[C@H]1[C@H](O)[C@@H](O)[C@H](O)[C@@H](O)[C@H]1O [INOSITOL],Activity,Vero,> 90%
COc1c(OCC#Cc2ccc(C#N)cc2)cc2oc3cc4c(c(O)c3c(=O)c2c1CC=C(C)C)C=CC(C)(C)O4,Activity,Vero,> 90%
COc1c(OCC(=O)N2CCN(S(=O)(=O)c3ccc(F)cc3)CC2)cc2oc3cc4c(c(O)c3c(=O)c2c1CC=C(C)C)C=CC(C)(C)O4,Activity,Chikungunya virus [10],7.37 log10FFU/ml
same,CC50,[1],191 µM
same,Activity,Vero,> 90%
same,Activity,Chikungunya virus [11],7.21 log10FFU/ml
same,Activity,Chikungunya virus [12],7.13 log10FFU/ml
same,IC50,Chikungunya virus [13],7.71 µM
same,selectivity ratio at 24 h,[3],7.3
same,IC50,Chikungunya virus [6],26200 nM
COc1c(OCc2cn(-c3ccc(Br)cc3)nn2)cc2oc3cc4c(c(O)c3c(=O)c2c1CC=C(C)C)C=CC(C)(C)O4,Activity,Vero,< 90%
COc1c(OCC#Cc2ccc(I)cc2)cc2oc3cc4c(c(O)c3c(=O)c2c1CC=C(C)C)C=CC(C)(C)O4,Activity,Vero,> 90%
COc1c(OCc2cn(-c3cc(C)ccc3C)nn2)cc2oc3cc4c(c(O)c3c(=O)c2c1CC=C(C)C)C=CC(C)(C)O4,Activity,Vero,> 90%
COc1c(OCc2cn(-c3ccccc3)nn2)cc2oc3cc4c(c(O)c3c(=O)c2c1CC=C(C)C)C=CC(C)(C)O4,Activity,Vero,> 90%
COc1c(OCC(=O)N2CCN(S(=O)(=O)c3ccc(C)cc3)CC2)cc2oc3cc4c(c(O)c3c(=O)c2c1CC=C(C)C)C=CC(C)(C)O4,Activity,Vero,> 90%
C=C(C)C1Cc2c(cc3oc4cc(O)c(OC)c(CC=C(C)C)c4c(=O)c3c2O)O1 (stereo not drawn) [MANGOSTENONE F],CC50,[1],12.8 µM
same,Activity,Vero,> 90%
same,Activity,Chikungunya virus [8],7.42 log10FFU/ml
same,IC50,Chikungunya virus [13],21.8 µM
same,selectivity ratio at 24 h,[3],6.54
same,IC50,Chikungunya virus [6],1960 nM
